Data taken from patent publication US10385065B2, “Antibacterial compounds” (priority 2014, dated 2019).
Values after ≈ are worked out from the molar mass of the structure shown. Where two headings read alike, the source gives them in different places.

How the values were obtained:
Assay type in all cases: cell-based
[1] = test system: Staphylococcus aureus ATCC 29213; experiment: MIC, broth microdilution, S. aureus ATCC 29213
[2] = test system: Escherichia coli ATCC 25922; experiment: MIC, broth microdilution, E. coli ATCC 25922; conditions: ATCC25922, Table 1, wild type strain
S. aureus NRS100 MRSA = experiment: MIC, S. aureus NRS100; conditions: Staphylococcus aureus; Table 2
[3] = test system: Enterococcus faecium ATCC 19434; experiment: MIC, E. faecium ATCC 19434; conditions: ATCC19434, Table 2
[4] = test system: Haemophilus influenzae ATCC 49247; experiment: MIC, H. influenzae ATCC 49247; conditions: ATCC49247, Table 4
[5] = test system: human hepatic cell line (HepG2 ATCC HB-8065); experiment: Human cell viability assay (CellTiter-Glo), HepG2; conditions: HepG2, 24 h incubation, tested over 1-128 μg/mL, read-out: IC50 values against HepG2
Summary of the method: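 HepG2 seeded at 20,000 cells/well, then after 24 h given two-fold serial dilutions (1-128 μg/mL, 1% DMSO) in DMEM with 0.001% FBS and 0.3% albumin. After 24 h at 37 °C, ATP luminescence (CellTiter-Glo) read; IC50 is the concentration halving viability.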

[6] = test system: S. aureus NRS482 MRSA FQ resistant; experiment: MIC, S. aureus NRS482; conditions: Staphylococcus aureus; Table 2
[7] = test system: S. aureus (MRSA) ATCC 43300; experiment: MIC, S. aureus ATCC 43300; conditions: Staphylococcus aureus; Table 2; read-out: MIC S. aureus (MRSA) ATCC 43300 Heterogeneous MRSA strain
S. aureus NRS1 MRSA = experiment: MIC, S. aureus NRS1; conditions: Staphylococcus aureus; Table 2; read-out: MIC S. aureus NRS1 MRSA AMG & TET resistant
[8] = test system: S. aureus SACPX1-SP25 MSSA - FQ resistant; experiment: microbe, parasite or virus in culture; conditions: Staphylococcus aureus, ATCC 29213 / MSSA, read-out: MIC S. aureus SACPX1-SP25 MSSA - FQ resistant (isogenic mutant of ATCC 29213)
[9] = test system: S. aureus NRS127 MRSA LZD resistant; experiment: MIC, S. aureus NRS127; conditions: Staphylococcus aureus; Table 2
[10] = test system: S. aureus VRS1 MRSA VAN resistant; experiment: MIC, S. aureus VRS1; conditions: Staphylococcus aureus, Table 2
[11] = test system: Moraxella catarrhalis ATCC 25240; experiment: MIC, M. catarrhalis ATCC 25240; conditions: ATCC25240, Table 4
[12] = test system: Legionella pneumophila ATCC 33152; experiment: microbe, parasite or virus in culture; conditions: ATCC33152, 48 h, read-out: MIC Legionella pneumophila ATCC 33152
[13] = test system: S. epidermidis NRS101 MRSE; experiment: MIC, S. epidermidis NRS101; conditions: Staphylococcus epidermidis; Table 2; read-out: MIC S. epidermidis NRS101 MRSE AMG, ERY resistant
[14] = test system: Neisseria gonorrhoeae ATCC 49226; experiment: MIC, N. gonorrhoeae ATCC 49226; conditions: ATCC49226, Table 4, 24 h incubation
[15] = test system: Neisseria meningitidis ATCC 13090; experiment: MIC, N. meningitidis ATCC 13090; conditions: ATCC13090, Table 4, 24 h incubation
[16] = ATCC29213, Table 1, wild type strain, read-out: MIC S. aureus ATCC 29213
[17] = ATCC 29213 / MSSA, Table 2, read-out: MIC S. aureus (MSSA) ATCC 29213 CLSI control strain

Q: What does the source list for `Cc1nc2c(=O)n(C3CC3)c3cc(N4CCC(C(C)N)C4)c(F)cc3c2o1` (stereo not drawn) [Compound 54, 7-[3-(1-aminoethyl)pyrrolidin-1-yl]-5-cyclopropyl-8-fluoro-2-methyl-oxazolo[4,5-c]quinolin-4-one]?
A: MIC [1, 16]: 1 to 10 µg/mL (≈ 2.7 to 27 µM); MIC [1, 17]: 1 to 10 µg/mL (≈ 2.7 to 27 µM); MIC [2]: 1 to 10 µg/mL (≈ 2.7 to 27 µM); MIC (S. aureus NRS100 MRSA): 1 to 10 µg/mL (≈ 2.7 to 27 µM); MIC [3]: 10 to 100 µg/mL (≈ 27 to 270 µM); MIC [4]: 1 to 10 µg/mL (≈ 2.7 to 27 µM); IC50 [5]: 10 to 100 µg/mL (≈ 27 to 270 µM)

Q: How did the MIC [1, 16] turn out when `Cc1nc2c(=O)n3c4c(c(N5CC[C@@H](CN)C5)c(F)cc4c2o1)OC[C@@H]3C` [Compound 90, (2S)-6-[(3S)-3-(aminomethyl)pyrrolidin-1-yl]-7-fluoro-2,12-dimethyl-4,11-dioxa-1,13-diazatetracyclo[7.6.1.0^5,^16.0^10,^14]hexadeca-5(16),6,8,10(14),12-pentaen-15-one] was run?
A: < 1 µg/mL

Q: What about the MIC [1, 17] of the same compound?
A: < 1 µg/mL

Q: What about the MIC [2] of the same compound?
A: 1 to 10 µg/mL (≈ 2.69 to 26.9 µM)

Q: And the MIC [6]?
A: 1 to 10 µg/mL (≈ 2.69 to 26.9 µM)

Q: And the MIC [7]?
A: < 1 µg/mL

Q: And the MIC (S. aureus NRS1 MRSA)?
A: 1 to 10 µg/mL (≈ 2.69 to 26.9 µM)

Q: And the MIC [8]?
A: 1 to 10 µg/mL (≈ 2.69 to 26.9 µM)

Q: What about the MIC [9] of the same compound?
A: 1 to 10 µg/mL (≈ 2.69 to 26.9 µM)

Q: What about the MIC [10] of the same compound?
A: 10 to 100 µg/mL (≈ 26.9 to 269 µM)

Q: And the MIC [4]?
A: 1 to 10 µg/mL (≈ 2.69 to 26.9 µM)

Q: What about the MIC [11] of the same compound?
A: 1 to 10 µg/mL (≈ 2.69 to 26.9 µM)

Q: And the MIC [12]?
A: 1 to 10 µg/mL (≈ 2.69 to 26.9 µM)

Q: What about the IC50 [5] of the same compound?
A: 10 to 100 µg/mL (≈ 26.9 to 269 µM)

Q: `Cc1nc2c(=O)n(C3CC3)c3c(C)c(-c4ccc(N)nc4)ccc3c2o1` [Compound 23, 7-(6-amino-3-pyridyl)-5-cyclopropyl-2,6-dimethyl-oxazolo[4,5-c]quinolin-4-one] was tested. Which MIC [1, 16] did it give?
A: < 1 µg/mL

Q: And the MIC [1, 17]?
A: < 1 µg/mL

Q: What about the MIC [2] of the same compound?
A: 1 to 10 µg/mL (≈ 2.89 to 28.9 µM)

Q: And the MIC [6]?
A: 1 to 10 µg/mL (≈ 2.89 to 28.9 µM)

Q: And the MIC [7]?
A: < 1 µg/mL

Q: And the MIC (S. aureus NRS1 MRSA)?
A: 1 to 10 µg/mL (≈ 2.89 to 28.9 µM)

Q: What about the MIC [8] of the same compound?
A: 1 to 10 µg/mL (≈ 2.89 to 28.9 µM)

Q: And the MIC [9]?
A: 1 to 10 µg/mL (≈ 2.89 to 28.9 µM)

Q: What about the MIC [10] of the same compound?
A: 10 to 100 µg/mL (≈ 28.9 to 289 µM)

Q: What about the MIC [13] of the same compound?
A: 1 to 10 µg/mL (≈ 2.89 to 28.9 µM)

Q: What about the MIC [3] of the same compound?
A: > 100 µg/mL

Q: What about the MIC [4] of the same compound?
A: 1 to 10 µg/mL (≈ 2.89 to 28.9 µM)

Q: What about the MIC [14] of the same compound?
A: 1 to 10 µg/mL (≈ 2.89 to 28.9 µM)

Q: For `Cc1c(-c2cnc3[nH]ncc3c2)ccc2c3ocnc3c(=O)n(C3CC3)c12` [Compound 20, 5-cyclopropyl-6-methyl-7-(1H-pyrazolo[3,4-b]pyridine-5-yl)oxazolo[4,5-c]quinolin-4-one], which MIC [1, 16] is on record?
A: < 1 µg/mL

Q: And the MIC [1, 17]?
A: < 1 µg/mL

Q: What about the MIC [2] of the same compound?
A: 1 to 10 µg/mL (≈ 2.8 to 28 µM)

Q: What about the MIC [6] of the same compound?
A: < 1 µg/mL

Q: And the MIC [7]?
A: < 1 µg/mL

Q: What about the MIC (S. aureus NRS1 MRSA) of the same compound?
A: < 1 µg/mL

Q: What about the MIC [8] of the same compound?
A: < 1 µg/mL

Q: And the MIC [9]?
A: < 1 µg/mL

Q: What about the MIC [10] of the same compound?
A: < 1 µg/mL

Q: What about the MIC [13] of the same compound?
A: < 1 µg/mL

Q: And the MIC [3]?
A: 1 to 10 µg/mL (≈ 2.8 to 28 µM)

Q: And the MIC [4]?
A: < 1 µg/mL

Q: What about the IC50 [5] of the same compound?
A: > 100 µg/mL

Q: Which MIC [1, 16] does the source give for `Cc1nc2c(=O)n(C3CC3)c3cc(N4CCC(CN)C4)c(F)cc3c2o1` (stereo not drawn) [Compound 57, 7-[3-(aminomethyl)pyrrolidin-1-yl]-5-cyclopropyl-8-fluoro-2-methyl-oxazolo[4,5-c]quinolin-4-one] here?
A: < 1 µg/mL

Q: And the MIC [1, 17]?
A: < 1 µg/mL

Q: And the MIC [2]?
A: 1 to 10 µg/mL (≈ 2.81 to 28.1 µM)

Q: What about the MIC [6] of the same compound?
A: 1 to 10 µg/mL (≈ 2.81 to 28.1 µM)

Q: What about the MIC (S. aureus NRS1 MRSA) of the same compound?
A: 1 to 10 µg/mL (≈ 2.81 to 28.1 µM)

Q: What about the MIC [8] of the same compound?
A: 1 to 10 µg/mL (≈ 2.81 to 28.1 µM)

Q: What about the MIC [3] of the same compound?
A: 10 to 100 µg/mL (≈ 28.1 to 281 µM)

Q: And the MIC [4]?
A: 1 to 10 µg/mL (≈ 2.81 to 28.1 µM)

Q: What about the MIC [15] of the same compound?
A: 1 to 10 µg/mL (≈ 2.81 to 28.1 µM)

Q: And the IC50 [5]?
A: 10 to 100 µg/mL (≈ 28.1 to 281 µM)

Q: `Cc1nc2c(=O)n3c4c(c(N5CCC(CN)C5)c(F)cc4c2o1)OC[C@@H]3C` (stereo partly drawn) [Compound 88, (2S)-6-[3-(aminomethyl)pyrrolidin-1-yl]-7-fluoro-2,12-dimethyl-4,11-dioxa-1,13-diazatetracyclo[7.6.1.0^5,^16.0^10,^14]hexadeca-5(16),6,8,10(14),12-pentaen-15-one] was tested. Which MIC [1, 16] did it give?
A: < 1 µg/mL

Q: What about the MIC [1, 17] of the same compound?
A: < 1 µg/mL

Q: And the MIC [2]?
A: 1 to 10 µg/mL (≈ 2.69 to 26.9 µM)

Q: What about the MIC [6] of the same compound?
A: 1 to 10 µg/mL (≈ 2.69 to 26.9 µM)

Q: What about the MIC [7] of the same compound?
A: 1 to 10 µg/mL (≈ 2.69 to 26.9 µM)

Q: And the MIC (S. aureus NRS1 MRSA)?
A: 1 to 10 µg/mL (≈ 2.69 to 26.9 µM)

Q: And the MIC [8]?
A: 1 to 10 µg/mL (≈ 2.69 to 26.9 µM)

Q: And the MIC [9]?
A: 1 to 10 µg/mL (≈ 2.69 to 26.9 µM)

Q: And the MIC [10]?
A: 1 to 10 µg/mL (≈ 2.69 to 26.9 µM)

Q: What about the MIC [3] of the same compound?
A: 10 to 100 µg/mL (≈ 26.9 to 269 µM)

Q: What about the MIC [4] of the same compound?
A: 1 to 10 µg/mL (≈ 2.69 to 26.9 µM)

Q: And the MIC [11]?
A: 1 to 10 µg/mL (≈ 2.69 to 26.9 µM)

Q: What about the MIC [12] of the same compound?
A: 1 to 10 µg/mL (≈ 2.69 to 26.9 µM)

Q: What about the MIC [14] of the same compound?
A: 1 to 10 µg/mL (≈ 2.69 to 26.9 µM)

Q: What about the MIC [15] of the same compound?
A: 1 to 10 µg/mL (≈ 2.69 to 26.9 µM)

Q: What about the IC50 [5] of the same compound?
A: 10 to 100 µg/mL (≈ 26.9 to 269 µM)
